For the assay, the target named is human PAD4 (hPAD4) (Homo sapiens, UniProt Q9UM07). In words: RFMS human PAD4 functional assay (rapid-fire mass spectrum). The class given is biochemical. The note with it: 5 nM hPAD4 enzyme, 250 μM BAEE, 50 μM Calcium; 30 min preincubation, 90 min reaction at 37° C. The method, boiled down:
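PAD4 (10 nM) preincubated 30 min with compound (top final 50 μM), then BAEE substrate added in pH 7.5 HEPES buffer with DTT, 50 μM calcium, TPEN; 90 min at 37° C. After TCA quench, citrulline derivatized with phenyl glyoxal (4 mM final, 30 min, 37° C) and quantified by RapidFire MS against internal standard.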

The values below come from patent publication US12692254B2, “Benzimidazole inhibitors of PAD enzymes” (BRISTOL-MYERS SQUIBB COMPANY, priority 2018, dated 2026).

Sequence of human PAD4 (hPAD4) (Q9UM07 whole entry): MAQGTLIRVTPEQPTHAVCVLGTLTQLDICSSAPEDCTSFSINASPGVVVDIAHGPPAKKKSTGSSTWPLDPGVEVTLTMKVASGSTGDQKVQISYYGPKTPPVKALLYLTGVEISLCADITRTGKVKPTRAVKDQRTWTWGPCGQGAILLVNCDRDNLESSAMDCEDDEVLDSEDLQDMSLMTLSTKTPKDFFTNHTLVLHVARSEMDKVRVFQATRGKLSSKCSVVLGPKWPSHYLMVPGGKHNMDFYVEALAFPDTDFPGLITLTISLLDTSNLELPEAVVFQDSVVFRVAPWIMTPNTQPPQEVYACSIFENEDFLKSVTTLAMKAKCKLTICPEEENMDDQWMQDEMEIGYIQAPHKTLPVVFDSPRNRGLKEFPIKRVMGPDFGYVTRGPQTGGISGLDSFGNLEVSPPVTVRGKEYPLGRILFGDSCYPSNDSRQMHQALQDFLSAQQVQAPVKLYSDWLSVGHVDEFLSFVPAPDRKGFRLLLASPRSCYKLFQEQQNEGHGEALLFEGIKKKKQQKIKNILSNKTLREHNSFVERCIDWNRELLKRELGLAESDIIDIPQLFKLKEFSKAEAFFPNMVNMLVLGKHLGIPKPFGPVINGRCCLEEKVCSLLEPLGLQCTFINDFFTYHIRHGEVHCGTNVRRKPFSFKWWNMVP

The IC50 is the concentration that inhibits the measured activity by half. As to `COc1cc(C(=O)N2C[C@H](N)C[C@@H](F)C2)cc2nc(-c3cc4ccccc4n3CC3CC3)n(Cc3ccccn3)c12` [Example 293, (3R,5R)-1-{2-[1-(cyclopropylmethyl)-1H-indol-2-yl]-7-methoxy-1-[(pyridin-2-yl)methyl]-1H-1,3-benzodiazole-5-carbonyl}-5-fluoropiperidin-3-amine], the IC50 worked out at 2660 nM.

With `COc1cc(C(=O)N2CC3CCC2[C@@H]3N)cc2nc(-c3cc4ccccc4n3CC3CC3)n(Cc3cnn(-c4cnc(O)c(F)c4)c3)c12` (stereo partly drawn) [Example 357, 5-[4-({5-[(7R)-7-amino-2-azabicyclo[2.2.1]heptane-2-carbonyl]-2-[1-(cyclopropylmethyl)-1H-indol-2-yl]-7-methoxy-1H-1,3-benzodiazol-1-yl}methyl)-1H-pyrazol-1-yl]-3-fluoropyridin-2-ol], the IC50 was found to be 23 nM.

For `N[C@@H]1C2CCC1N(C(=O)c1cc(F)c3c(c1)nc(-c1cc4ccccc4n1CC1CC1)n3CC1CN(C(=O)c3ccccc3)C1)C2` (stereo partly drawn) [Example 136, (1R,4R,7R)-2-{1-[(1-benozylazetidin-3-yl)methyl]-2-[1-(cyclopropylmethyl)-1H-indol-2-yl]-7-fluoro-1H-1,3-benzodiazole-5-carbonyl}-2-azabicyclo[2.2.1]heptan-7-amine], the IC50 was 11 nM.

In the case of `COc1cc(C(=O)N2C[C@H]3CC[C@@H]2[C@@H]3N)cc2nc(-c3cc4ccccc4n3CC3CC3)n(CC3CN(c4ccnc(C)n4)C3)c12` [Example 66, (1R,4R,7R)-2-{2-[1-(cyclopropylmethyl)-1H-indol-2-yl]-7-methoxy-1-{[1-(2-methylpyrimidin-4-yl)azetidin-3-yl]methyl}-1H-1,3-benzodiazole-5-carbonyl}-2-azabicyclo[2.2.1]heptan-7-amine], the IC50 was found to be 39 nM.

Consider `COc1cc(C(=O)N2C[C@H]3CC[C@@H]2[C@@H]3N)cc2nc(-c3cc4cccnc4n3CC3CC3)n(C3CN(C(=O)c4ccnc(C#N)c4)C3)c12` [Example 184, 4-(3-{5-[(1R,4R,7R)-7-amino-2-azabicyclo[2.2.1]heptane-2-carbonyl]-2-[1-(cyclopropylmethyl)-1H-pyrrolo[2,3-b]pyridin-2-yl]-7-methoxy-1H-1,3-benzodiazol-1-yl}azetidine-1-carbonyl)pyridine-2-carbonitrile], for which the IC50 turned out to be 309 nM.

Turning to `COc1cc(C(=O)N2C[C@H](N)C[C@@H](F)C2)cc2nc(-c3cc4cccnc4n3CC3CC3)n(Cc3cnn(C)c3)c12` [Example 250, ((3R,5R)-3-amino-5-fluoropiperidin-1-yl)(2-(1-(cyclopropylmethyl)-1H-pyrrolo[2,3-b]pyridin-2-yl)-7-methoxy-1-((1-methyl-1H-pyrazol-4-yl)methyl)-1H-benzo[d]imidazol-5-yl)methanone], the IC50 came out at 89 nM.

On to `COc1ccccc1C(=O)N1CC(Cn2c(-c3cc4ccccc4n3CC3CC3)nc3cc(C(=O)N4C[C@H]5CC[C@@H]4[C@@H]5N)cc(OC)c32)C1` [Example 168, (1R,4R,7R)-2-{2-[1-(cyclopropylmethyl)-1H-indol-2-yl]-7-methoxy-1-{[1-(2-methoxybenzoyl)azetidin-3-yl]methyl}-1H-1,3-benzodiazol-5-carbonyl}-2-azabicyclo[2.2.1]heptan-7-amine], for which the half-maximal inhibitory concentration (IC50) was found to be 33 nM.

In the case of `Cn1cc(Cn2c(-c3cc4cccnc4n3CC3CC3)nc3cc(C(=O)N4CC5CCC4[C@@H]5N)cc(Cl)c32)cn1` (stereo partly drawn) [Example 493, (7R)-2-{7-chloro-2-[1-(cyclopropylmethyl)-1H-pyrrolo[2,3-b]pyridin-2-yl]-1-[(1-methyl-1H-pyrazol-4-yl)methyl]-1H-1,3-benzodiazole-5-carbonyl}-2-azabicyclo[2.2.1]heptan-7-amine], the IC50 was 83 nM.

As for `COc1cc(C(=O)N2C[C@H]3CC[C@@H]2[C@@H]3N)cc2nc(-c3cc4cccnc4n3CC3CC3)n(C[C@@H]3CCN(c4cncc(C#N)c4)C3)c12` [Example 211, 5-[(3R)-3-({5-[(1R,4R,7R)-7-amino-2-azabicyclo[2.2.1]heptane-2-carbonyl]-2-[1-(cyclopropylmethyl)-1H-pyrrolo[2,3-b]pyridin-2-yl]-7-methoxy-1H-1,3-benzodiazol-1-yl}methyl)pyrrolidin-1-yl]pyridine-3-carbonitrile], the half-maximal inhibitory concentration (IC50) was determined as 80 nM.

`COc1cc(C(=O)N2CC3CCC2[C@@H]3N)cc2nc(-c3cc4cccnc4n3CC3CC3)n(CC3CN(S(=O)(=O)c4ccccc4)C3)c12` (stereo partly shown) [Example 326]: the half-maximal inhibitory concentration (IC50) came out at 197 nM.

For `COc1cc(C(=O)N2C[C@H](N)C[C@@H](F)C2)cc2nc(-c3cc4ccccc4n3CC3CC3)n(CC3(C)CN(C(=O)c4ccccc4)C3)c12` [Example 460, (3R,5R)-1-{1-[(1-benzoyl-3-methylazetidin-3-yl)methyl]-2-[1-(cyclopropylmethyl)-1H-indol-2-yl]-7-methoxy-1H-1,3-benzodiazole-5-carbonyl}-5-fluoropiperidin-3-amine], the IC50 was 67 nM.

Take `N#Cc1ccc(C(=O)N2CC(Cn3c(-c4cc5cccnc5n4CC4CC4)nc4cc(C(=O)N5CC6CCC5[C@@H]6N)ccc43)C2)cc1` (stereo partly drawn) [Example 467, 4-[3-({5-[(7R)-7-amino-2-azabicyclo[2.2.1]heptane-2-carbonyl]-2-[1-(cyclopropylmethyl)-1H-pyrrolo[2,3-b]pyridin-2-yl]-1H-1,3-benzodiazol-1-yl}methyl)azetidine-1-carbonyl]benzonitrile]: the 50% inhibitory concentration (IC50) stood at 91 nM.

With `COc1cc(C(=O)N2CC3CCC2[C@@H]3N)cc2nc(-c3cc4ccccc4n3CC3CC3)n(Cc3cnn(-c4cccnc4O)c3)c12` (stereo partly drawn) [Example 384, 3-[4-({5-[(7R)-7-amino-2-azabicyclo[2.2.1]heptane-2-carbonyl]-2-[1-(cyclopropylmethyl)-1H-indol-2-yl]-7-methoxy-1H-1,3-benzodiazol-1-yl}methyl)-1H-pyrazol-1-yl]pyridin-2-ol], the IC50 was found to be 41 nM.

With `COc1cc(C(=O)N2CC3CCC2[C@@H]3N)cc2nc(-c3cc4cccnc4n3CC3CC3)n(Cc3cnn(CC#N)c3)c12` (stereo partly drawn) [Example 390, 2-[4-({5-[(7R)-7-amino-2-azabicyclo[2.2.1]heptane-2-carbonyl]-2-[1-(cyclopropylmethyl)-1H-pyrrolo[2,3-b]pyridin-2-yl]-7-methoxy-1H-1,3-benzodiazol-1-yl}methyl)-1H-pyrazol-1-yl]acetonitrile], the IC50 came to 45 nM.

Regarding `COc1cc(C(=O)N2CC3CCC2[C@@H]3N)cc2nc(-c3cc4cccnc4n3CC3CC3)n([C@H]3C[C@H](NC(C)=O)C3)c12` (stereo partly drawn) [Example 302, N-[(1r,3r)-3-{5-[(1R,4R,7R)-7-amino-2-azabicyclo[2.2.1]heptane-2-carbonyl]-2-[1-(cyclopropylmethyl)-1H-pyrrolo[2,3-b]pyridin-2-yl]-7-methoxy-1H-1,3-benzodiazol-1-yl)cyclobutyl]acetamide], the IC50 came to 1210 nM.

In the case of `COc1cc(C(=O)N2C[C@H]3CC[C@@H]2[C@@H]3N)cc2nc(-c3cc4cccnc4n3CC3CC3)n(CC3CN(C(=O)C4CCCCC4)C3)c12` [Example 110, (1R,4R,7R)-2-{1-[(1-cyclohexanecarbonylazetidin-3-yl)methyl]-2-[1-(cyclopropylmethyl)-1H-pyrrolo[2,3-b]pyridin-2-yl]-7-methoxy-1H-1,3-benzodiazole-5-carbonyl}-2-azabicyclo[2.2.1]heptan-7-amine], the IC50 amounted to 46 nM.

For the molecule `COc1cc(C(=O)N2CC3CCC2[C@@H]3N)cc2nc(-c3cc4cccnc4n3CC3CC3)n(CC3CN(S(=O)(=O)c4cccc(F)c4)C3)c12` (stereo partly shown) [Example 333], the half-inhibitory concentration (IC50) is 222 nM.

For `COc1cc(C(=O)N2CC3CCC2[C@@H]3N)cc2nc(-c3cc4cccnc4n3CC3CC3)n(Cc3cn[nH]n3)c12` (stereo partly drawn) [Example 485, (7R)-2-{2-[1-(cyclopropylmethyl)-1H-pyrrolo[2,3-b]pyridin-2-yl]-7-methoxy-1-[(2H-1,2,3-triazol-4-yl)methyl]-1H-1,3-benzodiazole-5-carbonyl}-2-azabicyclo[2.2.1]heptan-7-amine], the IC50 was determined as 47 nM.

Regarding `COc1cc(C(=O)N2CCC[C@@H](N)C2)cc2nc(-c3cc4cccnc4n3CC3CC3)n(CC3CN(C(=O)c4ccccc4)C3)c12` [Example 413, (3R)-1-{1-[(1-benzoylazetidin-3-yl)methyl]-2-[1-(cyclopropylmethyl)-1H-pyrrolo[2,3-b]pyridin-2-yl]-7-methoxy-1H-1,3-benzodiazole-5-carbonyl}piperidin-3-amine], the 50% inhibitory concentration (IC50) came to 263 nM.

Consider `COc1cc(C(=O)N2C[C@H]3CC[C@@H]2[C@@H]3N)cc2nc(-c3cc4cccnc4n3C)n(CC3CN(c4nccnc4C#N)C3)c12` [Example 39, 3-[3-({5-[(1R,4R,7R)-7-amino-2-azabicyclo[2.2.1]heptane-2-carbonyl]-7-methoxy-2-{1-methyl-1H-pyrrolo[2,3-b]pyridin-2-yl}-1H-1,3-benzodiazol-1-yl}methyl)azetidin-1-yl]pyrazine-2-carbonitrile], for which the IC50 stood at 94 nM.

With `COc1cc(C(=O)N2CC3CCC2[C@@H]3N)cc2nc(-c3cc4ccccc4n3CC3CC3)n(CC3CN(C(=O)c4ccnc(F)c4)C3)c12` (stereo partly drawn) [Example 419, (7R)-2-{2-[1-(cyclopropylmethyl)-1H-indol-2-yl]-1-{[1-(2-fluoropyridine-4-carbonyl)azetidin-3-yl]methyl}-7-methoxy-1H-1,3-benzodiazole-5-carbonyl}-2-azaticyclo[2.2.1]heptan-7-amine], the IC50 was 16 nM.

Consider `COc1cc(C(=O)N2CC3CCC2[C@@H]3N)cc2nc(-c3cc4cccnc4n3CC3CC3)n(Cc3cnn(-c4ccc(Cl)cn4)c3)c12` (stereo partly drawn) [Example 360, (7R)-2-(1-{[1-(5-chloropyridin-2-yl)-1H-pyrazol-4-yl]methyl}-2-[1-(cyclopropylmethyl)-1H-pyrrolo[2,3-b]pyridin-2-yl]-7-methoxy-1H-1,3-benzodiazole-5-carbonyl)-2-azabicyclo[2.2.1]heptan-7-amine], for which the IC50 worked out at 24 nM.
